Results as given in patent US7557110B2, “Pyrazolo[1,5-A] pyrimidine derivatives” (Teijin Pharma Limited, priority 2003, dated 2009).

Legend:
MAPKAP-K2 = MAPKAP-K2 (Homo sapiens, UniProt P49137); test: MAPKAP-K2 enzyme activity inhibition (33P-ATP filter plate kinase assay); type: biochemical; conditions: MAPKAP-K2 inhibitory activity; assays conducted at typically 1-100 μM; note: key: +: active; ++: more active; +++: very active
Experimental: [General Procedure for Measurement of MAPKAP-K2 Enzyme Activity Inhibition]
After conducting the reaction for 30 minutes at room temperature, an equivalent volume of a 200 mM phosphoric acid solution was added to suspend the reaction, and 90 μL of the reaction product was adsorbed onto a MultiScreen PH plate (Millipore) and rinsed with a 100 mM phosphoric acid solution. After drying the plate, 30 μL of MicroScint-O (Packard BioScience) was added, and the cpm was measured with a scintillation counter to determine the inhibiting activity. Substrate peptide is […]

CDK-2 = CDK-2 (Homo sapiens, UniProt P24941); test: CDK-2 enzyme activity inhibition (33P-ATP filter plate kinase assay); type: biochemical; conditions: read-out: CDK-2 inhibition IC50
Excerpt: [General Procedure for Measurement of CDK-2 Enzyme Activity Inhibition]

Chain of MAPKAP-K2 (P49137 whole entry): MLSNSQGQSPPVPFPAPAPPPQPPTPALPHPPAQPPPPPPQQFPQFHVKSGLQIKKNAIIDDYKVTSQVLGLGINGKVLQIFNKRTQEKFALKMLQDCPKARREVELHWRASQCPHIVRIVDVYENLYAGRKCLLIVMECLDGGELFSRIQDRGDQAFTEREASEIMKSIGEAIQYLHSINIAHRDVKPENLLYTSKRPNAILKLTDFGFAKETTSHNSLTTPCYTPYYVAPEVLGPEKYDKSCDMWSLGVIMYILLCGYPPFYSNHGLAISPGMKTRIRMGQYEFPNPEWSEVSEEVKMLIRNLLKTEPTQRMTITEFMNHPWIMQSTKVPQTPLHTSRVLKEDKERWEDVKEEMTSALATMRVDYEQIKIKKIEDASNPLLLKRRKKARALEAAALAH

| activity (efficacy against MAPKAP-K2) (MAPKAP-K2) | IC50 (CDK-2) [µM] | SMILES |
| --- | --- | --- |
| +++ | < 100 | Cc1c(N[C@H]2CC[C@H](N)CC2)nc2ccnn2c1Nc1ccc(OCc2ccc(Cl)cc2)cc1 [Compound 211] |
| +++ | < 100 | Cc1c(N[C@H]2CC[C@H](N)CC2)nc2ccnn2c1Nc1ccc(OCc2ccccc2Cl)cc1 [Compound 213] |
| ++ | < 100 | Cc1c(N[C@H]2CC[C@H](N)CC2)nc2ccnn2c1Nc1ccc(OCCC2CCCCC2)cc1 [Compound 215] |
| +++ | < 100 | Cc1c(N[C@H]2CC[C@H](N)CC2)nc2ccnn2c1Nc1ccc(OC2CCCC2)cc1 [Compound 216] |
| ++ | < 100 | Cc1c(N[C@H]2CC[C@H](N)CC2)nc2ccnn2c1Nc1ccc(OC2CCN(C)CC2)cc1 [Compound 217] |
| +++ | < 100 | Cc1c(N[C@H]2CC[C@H](N)CC2)nc2ccnn2c1Nc1ccc(OC2CCOCC2)cc1 [Compound 219] |
| +++ | < 100 | Cc1c(N[C@H]2CC[C@H](N)CC2)nc2ccnn2c1Nc1ccc(OCCN2CCOCC2)cc1 [Compound 221] |
| +++ | < 100 | Cc1c(N[C@H]2CC[C@H](N)CC2)nc2ccnn2c1Nc1ccc(OCc2cccnc2)cc1 [Compound 222] |
| +++ | < 100 | Cc1c(N[C@H]2CC[C@H](N)CC2)nc2ccnn2c1Nc1ccc(OCCN2CCCCC2)cc1 [Compound 223] |
| +++ | < 100 | Cc1c(N[C@H]2CC[C@H](N)CC2)nc2ccnn2c1Nc1ccc(OCc2ccccn2)cc1 [Compound 224] |
| +++ | < 100 | Cc1c(N[C@H]2CC[C@H](N)CC2)nc2ccnn2c1Nc1ccc(OCCc2ccccn2)cc1 [Compound 225] |
| +++ | < 100 | Cc1c(NC2CCC(N)CC2)nc2ccnn2c1Nc1ccc(OCC2CCCN(C)C2)cc1 (stereo not drawn) [Compound 226] |
| +++ | < 100 | Cc1c(N[C@H]2CC[C@H](N)CC2)nc2ccnn2c1Nc1ccc(OCCc2ccncc2)cc1 [Compound 228] |
| +++ | < 100 | Cc1c(NC2CCC(N)CC2)nc2ccnn2c1Nc1ccc(OC2CCNC2)cc1 (stereo not drawn) [Compound 229] |
| ++ | < 100 | Cc1c(NC2CCC(N)CC2)nc2ccnn2c1Nc1ccc(OCCC2CCCCN2)cc1 (stereo not drawn) [Compound 231] |
| ++ | < 100 | Cc1c(N[C@H]2CC[C@H](N)CC2)nc2ccnn2c1Nc1ccc(OCC2CCCCC2)cc1 [Compound 237] |
| ++ | < 100 | Cc1c(N[C@H]2CC[C@H](N)CC2)nc2ccnn2c1Nc1cccc(OCc2ccccc2)c1 [Compound 243] |
| ++ | < 100 | Cc1c(N[C@H]2CC[C@H](N)CC2)nc2ccnn2c1Nc1cccc(OCc2cccc(Cl)c2)c1 [Compound 247] |
| ++ | < 100 | Cc1c(N[C@H]2CC[C@H](N)CC2)nc2ccnn2c1Nc1cccc(OCc2ccc(Cl)cc2)c1 [Compound 248] |
| +++ | < 100 | Cc1c(NC2CCC(N)CC2)nc2ccnn2c1Nc1ccc(OCC2CCCCN2)cc1 (stereo not drawn) [Compound 251] |
| +++ | < 100 | Cc1c(NC2CCC(N)CC2)nc2ccnn2c1Nc1ccc(OCC2CCCO2)cc1 (stereo not drawn) [Compound 256] |
| ++ | < 100 | Cc1c(N[C@H]2CC[C@H](N)CC2)nc2ccnn2c1Nc1cccc(OCc2cccnc2)c1 [Compound 274] |
| +++ | < 100 | Cc1c(N[C@H]2CC[C@H](N)CC2)nc2ccnn2c1Nc1ccc(-c2ccccc2)cc1 [Compound 284, {5-[(trans-4-aminocyclohexyl)amino]-6-methyl(pyrazolo[1,5-a]pyrimidin-7-yl)}(4-phenylphenyl)amine] |
| +++ | < 100 | COc1ccccc1-c1ccc(Nc2c(C)c(N[C@H]3CC[C@H](N)CC3)nc3ccnn23)cc1 [Compound 287] |
| +++ | < 100 | Cc1c(N[C@H]2CC[C@H](N)CC2)nc2ccnn2c1Nc1ccc(-c2cccc(N)c2)cc1 [Compound 288] |
| +++ | < 100 | Cc1c(N[C@H]2CC[C@H](N)CC2)nc2ccnn2c1Nc1ccc(-c2cc3ccccc3s2)cc1 [Compound 289] |
| +++ | < 100 | Cc1c(N[C@H]2CC[C@H](N)CC2)nc2ccnn2c1Nc1ccc(-c2cc3ccccc3o2)cc1 [Compound 290] |

| activity (efficacy against MAPKAP-K2) (MAPKAP-K2) | IC50 (CDK-2) [µM] | SMILES |
| --- | --- | --- |
| ++ | < 100 | Cc1c(N[C@H]2CC[C@H](N)CC2)nc2ccnn2c1Nc1ccc(-c2csc3ccccc23)cc1 [Compound 292] |
| ++ | < 100 | N[C@H]1CC[C@H](Nc2cc(NCc3cccc(Cl)c3)n3ncc(I)c3n2)CC1 [Compound 297, {5-[(trans-4-aminocyclohexyl)amino]-3-iodo(pyrazolo[1,5-a]pyrimidin-7-yl)}[(3-chlorophenyl)methyl]amine] |
| +++ | < 100 | Cc1c(N[C@H]2CC[C@H](N)CC2)nc2ccnn2c1Nc1ccc(-c2ccncc2)cc1 [Compound 299] |
| +++ | < 100 | Cc1c(N[C@H]2CC[C@H](N)CC2)nc2ccnn2c1Nc1ccc(-c2cccnc2)cc1 [Compound 300] |
| +++ | < 100 | Cc1c(N[C@H]2CC[C@H](N)CC2)nc2ccnn2c1Nc1ccc(-c2ccc(N)cc2)cc1 [Compound 301] |
| +++ | < 100 | Cc1c(N[C@H]2CC[C@H](N)CC2)nc2ccnn2c1Nc1ccc(-c2ccc(F)cc2)cc1 [Compound 303] |
| +++ | < 100 | Cc1c(N[C@H]2CC[C@H](N)CC2)nc2ccnn2c1Nc1ccc(-c2cccc(F)c2)cc1 [Compound 304] |
| +++ | < 100 | Cc1c(N[C@H]2CC[C@H](N)CC2)nc2ccnn2c1Nc1ccc(-c2ccccc2F)cc1 [Compound 305] |
| +++ | < 100 | Cc1c(N[C@H]2CC[C@H](N)CC2)nc2ccnn2c1Nc1ccc(-c2ccc(O)cc2)cc1 [Compound 306] |
| +++ | < 100 | Cc1c(N[C@H]2CC[C@H](N)CC2)nc2ccnn2c1Nc1ccc(-c2cccc(O)c2)cc1 [Compound 307] |
| +++ | < 100 | Cc1c(N[C@H]2CC[C@H](N)CC2)nc2ccnn2c1Nc1ccc(-c2ccoc2)cc1 [Compound 309] |
| ++ | < 100 | Cc1c(N[C@H]2CC[C@H](N)CC2)nc2ccnn2c1Nc1ccc(-c2ccsc2C=O)cc1 [Compound 310] |
| +++ | < 100 | Cc1c(N[C@H]2CC[C@H](N)CC2)nc2ccnn2c1Nc1ccc(-c2cncnc2)cc1 [Compound 311] |
| +++ | < 100 | Cc1c(N[C@H]2CC[C@H](N)CC2)nc2ccnn2c1Nc1ccc(-c2ccc(Cl)cc2)cc1 [Compound 312] |
| ++ | < 100 | Cc1c(N[C@H]2CC[C@H](N)CC2)nc2ccnn2c1Nc1ccc(-c2ccccc2Cl)cc1 [Compound 313] |
| +++ | < 100 | Cc1c(N[C@H]2CC[C@H](N)CC2)nc2ccnn2c1Nc1ccc(-c2ccc(N(C)C)cc2)cc1 [Compound 314] |
| +++ | < 100 | Cc1c(N[C@H]2CC[C@H](N)CC2)nc2ccnn2c1Nc1ccc(-c2cccc(N(C)C)c2)cc1 [Compound 315] |
| +++ | < 100 | Cc1c(N[C@H]2CC[C@H](N)CC2)nc2ccnn2c1Nc1ccc(-c2cccc(OC(F)(F)F)c2)cc1 [Compound 316] |
| +++ | < 100 | Cc1c(N[C@H]2CC[C@H](N)CC2)nc2ccnn2c1Nc1ccc(-c2ccc(OC(F)(F)F)cc2)cc1 [Compound 317] |
| +++ | < 100 | Cc1c(N[C@H]2CC[C@H](N)CC2)nc2ccnn2c1Nc1ccc(-c2ccc(C#N)cc2)cc1 [Compound 318] |
| +++ | < 100 | Cc1c(N[C@H]2CC[C@H](N)CC2)nc2ccnn2c1Nc1ccc(-c2cccc(C#N)c2)cc1 [Compound 319] |
| +++ | < 100 | Cc1cccc(-c2ccc(Nc3c(C)c(N[C@H]4CC[C@H](N)CC4)nc4ccnn34)cc2)c1 [Compound 320] |
| +++ | < 100 | Cc1ccccc1-c1ccc(Nc2c(C)c(N[C@H]3CC[C@H](N)CC3)nc3ccnn23)cc1 [Compound 321] |
| ++ | < 100 | Cc1c(N[C@H]2CC[C@H](N)CC2)nc2ccnn2c1Nc1ccc(-c2ccccc2C(F)(F)F)cc1 [Compound 323] |
| +++ | < 100 | Cc1c(N[C@H]2CC[C@H](N)CC2)nc2ccnn2c1Nc1ccc(-c2cccc(C(F)(F)F)c2)cc1 [Compound 324] |
| + | < 100 | CCOc1ccc(Nc2c(C)c(N(CC)C3CCCNC3)nc3ccnn23)cc1 (stereo not drawn) [Compound 341] |

| SMILES | activity (efficacy against MAPKAP-K2) (MAPKAP-K2) | IC50 (CDK-2) [µM] |
| --- | --- | --- |
| CCOc1ccc(Nc2c(C)c(N(C)C3CCCNC3)nc3ccnn23)cc1 (stereo not drawn) [Compound 340] | + | < 100 |
